The values below come from US12655123B2, “Heteroaryl compounds, solid forms, preparation methods and uses thereof” (InventisBio Co., Ltd., priority 2022, dated 2026).

In brackets after ≈: the same amount, converted by molar mass. Entries after “also recorded” stand apart in the source; their conditions may differ. Structures can show the parent of a compound that is named as a salt. Bounds are passed on as bounds.

Data set [1] in a line: Dynamic vapor sorption (DVS) analysis. Type of data set: physicochemical. Conditions: for hygroscopic weight gain / water uptake (DVS): at 90% RH. As for the experimental part: Dynamic Vapor Sorption (DVS) Analysis: Moisture sorption/desorption data was collected on a DVS Intrinsic PLUS (SMS, UK). The sample was placed into a tared sample chamber and automatically weighed. The sample was dried at 40° C. until the dm/dt was less than 0.002% and cooled to 25° C.

Data set [2] can be described thus: Solubility in bio-relevant media (FaSSIF, FeSSIF, SGF). Type of data set: physicochemical. An excerpt: (§1) High Performance Liquid Chromatography (HPLC): a representative HPLC method is shown below, which can be used, for example, to analyze the purity, solubility, and stability of Compound 1 herein.
Another data set in a line: Solid stability. Type of data set: physicochemical.
From the text: as §1

Data set [3] can be described thus: Inter-conversion study among identified anhydrates in organic solvents. The data set is classed as physicochemical. To be noted: different organic solvents, RT to 60° C. As for the experimental part:
Inter-conversion study among identified anhydrates (Form I, Form II, Form III, Form IV, Form V, Form VIII, Form X, Form XIII, Form XIV, Form XV) was conducted in different organic solvents between RT to 60° C.

Data set [4] is described as follows: Slurry bridging studies among Form I, Form III and Form VI under different water activities. Type of data set: physicochemical. To be noted: versus Form I and Form VI.
A further data set relates to IL23. Conditions: as tested in PCT/CN2021/140271; read-out: HEK blue IL23 IC50; cited from earlier work.
Setting [5] is: Simulated Gastric Fluid (SGF), simulated gastric fluid, thermodynamic from solid, SGF.
Where [6] appears, read: thermodynamic from solid, FaSSIF.
Where [7] appears, read: thermodynamic from solid, FeSSIF.

Turning to `[2H]C([2H])([2H])NC(=O)c1nnc(NC(=O)C2CC2)cc1Nc1ncc(Cl)cc1S(C)(=O)=O` [Form III], the DVS reversibility result in data set [1] is “Reversible”. Moreover, the “DVS Wt. gain %” value is 0.09%, 0-80% RH in data set [1] (0-80% RH) and 0.03%, 80-90% RH in data set [1] (80-90% RH). In addition, the “hygroscopic weight gain / water uptake (DVS)” value in data set [1] worked out at 0.13%. Further, the “Solubility (in words)” value in data set [2] is “low and pH-dependent with higher solubility observed in Simulated Gastric Fluid (SGF)”. Besides, the solubility at 0.5 h is 7.3 µg/mL (≈ 17.1 µM) in data set [2] (setting [5]), 1.1 µg/mL (≈ 2.57 µM) in data set [2] (setting [6]) and 2.6 µg/mL (≈ 6.08 µM) in data set [2] (setting [7]). Further, the solubility at 2 h is 8.2 µg/mL (≈ 19.2 µM) in data set [2] (setting [5]), 1.1 µg/mL (≈ 2.57 µM) in data set [2] (setting [6]) and 3.4 µg/mL (≈ 7.95 µM) in data set [2] (setting [7]). The figures for the solubility at 24 h in data set [2] (setting [5]), in data set [2] (setting [6]) and in data set [2] (setting [7]) were 5.7 µg/mL (≈ 13.3 µM), 1.3 µg/mL (≈ 3.04 µM) and 4.1 µg/mL (≈ 9.58 µM), respectively. For the same compound, the Solid stability result in “Solid stability” (40° C./75% RH for 7 d) was “physically and chemically stable; also recorded: Chemically and physically stable”; in the data set “Solid stability” (60° C. for 7 d) it was “physically and chemically stable; also recorded: Chemically and physically stable”; in “Solid stability” (92.5% RH for 10 d), “crystal form remained unchanged; also recorded: Physically stable”. Also, the “relative stability among anhydrate forms” value in data set [3] is “most stable anhydrate form”. The results for the “water activity up to which the form is more stable” value in data set [4] (25° C.) and in data set [4] (50° C.) were “not more than 0.56” and no more than 0.83, respectively.

As for `[2H]C([2H])([2H])NC(=O)c1nnc(NC(=O)C2CC2)cc1Nc1ncc(Cl)cc1S(C)(=O)=O` [phosphate Form E], the “hygroscopic weight gain / water uptake (DVS)” value in data set [1] is listed as “about 0.92%”.

For the compound `[2H]C([2H])([2H])NC(=O)c1nnc(NC(=O)C2CC2)cc1Nc1ncc(Cl)cc1S(C)(=O)=O` [sulfate Form B], in data set [1], the “hygroscopic weight gain / water uptake (DVS)” value was “about 1.0%”. The solubility in data set [2] (bio-relevant media (FaSSIF, FeSSIF, SGF), fassgf or other biorelevant, thermodynamic from solid) was less than 20 µg/mL.

As to `[2H]C([2H])([2H])NC(=O)c1nnc(NC(=O)C2CC2)cc1Nc1ncc(Cl)cc1S(C)(=O)=O` [choline salt Form K], in data set [1], the “hygroscopic weight gain / water uptake (DVS)” value is on record as “about 23%”.

On to `[2H]C([2H])([2H])NC(=O)c1nnc(NC(=O)C2CC2)cc1Nc1ncc(Cl)cc1S(C)(=O)=O` [Compound 1], for which the half-maximal inhibitory concentration (IC50) with IL23 was 2.5 nM.

On to `[2H]C([2H])([2H])NC(=O)c1nnc(NC(=O)C2CC2)cc1Nc1ncc(Cl)cc1S(C)(=O)=O` [sulfate Form A], for which the “hygroscopic weight gain / water uptake (DVS)” value in data set [1] was “about 10%”.
